# Reference: US11667631B2, “FGFR4 inhibitor, preparation method therefor, and applications thereof” (Jiangsu Hansoh Pharmaceutical Group Co., Ltd., priority 2016, dated 2023)
# Where two headings read alike, the source gives them in different places.
# Key:
# [1] = Pharmacokinetic (PK) analysis in rats; type: in vivo, Sprague Dawley (SD) rats; conditions: SD rats, single intragastric administration, 5 mg/kg; for Peak Time tmax: (sampling in hours); for AUC(0-t) / AUC(0-inf) / half-life / MRT / Cmax: Sprague-Dawley, rat, plasma, po; for AUC(0-t): read-out: Area Under Curve AUC0-t; for AUC(0-inf): read-out: Area Under Curve AUC0-∞; for half-life: read-out: Half-Time t1/2 (converted); for MRT: read-out: Mean Residence Time MRT; for Cmax: read-out: Plasma Concentration Cmax
# Summary of the method: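 Intravenous blood (0.2 ml) was collected into K2EDTA and centrifuged to obtain plasma. Plasma (40 μL) was protein-precipitated with 160 μL acetonitrile. Compound levels were measured by LC/MS/MS on a C18 column using 0.1% formic acid in water and acetonitrile at 0.8 mL/min.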
# HuH-7 cells = experiment: Inhibition of HuH-7 cell proliferation (CellTiter-Glo); type: cell-based; conditions: Homo sapiens; HuH-7 cell proliferation, 72 hours, CellTiter-Glo; read-out: HuH-7 IC50
# Summary of the method: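 HuH-7 cells plated and left 16–24 h, then exposed to serially diluted compound for 72 h at 37 °C, 5% CO2. Viability read by CellTiter-Glo luminescence. IC50 obtained by curve fitting of inhibition rates.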
# Hep 3B cells = experiment: Inhibition of Hep 3B cell proliferation (CellTiter-Glo); type: cell-based; conditions: Homo sapiens, Hep3B; Hep 3B cell proliferation, 72 hours, CellTiter-Glo; read-out: Hep 3B IC50
# SK-HEP-1 cells = experiment: Inhibition of SK-HEP-1 cell proliferation (CellTiter-Glo); type: cell-based; conditions: Homo sapiens, SK-HEP1; SK-HEP-1 cell proliferation, 72 hours, CellTiter-Glo; read-out: SK-HEP-1 IC50
# Summary of the method: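 Cells seeded and allowed to attach 16–24 h, then exposed to serially diluted compound for 72 h at 37 °C, 5% CO2. Viability read by CellTiter-Glo luminescence; IC50 fitted from inhibition rates across concentrations.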
# FGFR1 kinase = FGFR1 kinase (Homo sapiens (Human), UniProt P11362); experiment: Enzymologic experiment of FGFR1 (TR-FRET); type: biochemical; conditions: FGFR1 kinase activity
# Chain of FGFR1 kinase (P11362 22-822): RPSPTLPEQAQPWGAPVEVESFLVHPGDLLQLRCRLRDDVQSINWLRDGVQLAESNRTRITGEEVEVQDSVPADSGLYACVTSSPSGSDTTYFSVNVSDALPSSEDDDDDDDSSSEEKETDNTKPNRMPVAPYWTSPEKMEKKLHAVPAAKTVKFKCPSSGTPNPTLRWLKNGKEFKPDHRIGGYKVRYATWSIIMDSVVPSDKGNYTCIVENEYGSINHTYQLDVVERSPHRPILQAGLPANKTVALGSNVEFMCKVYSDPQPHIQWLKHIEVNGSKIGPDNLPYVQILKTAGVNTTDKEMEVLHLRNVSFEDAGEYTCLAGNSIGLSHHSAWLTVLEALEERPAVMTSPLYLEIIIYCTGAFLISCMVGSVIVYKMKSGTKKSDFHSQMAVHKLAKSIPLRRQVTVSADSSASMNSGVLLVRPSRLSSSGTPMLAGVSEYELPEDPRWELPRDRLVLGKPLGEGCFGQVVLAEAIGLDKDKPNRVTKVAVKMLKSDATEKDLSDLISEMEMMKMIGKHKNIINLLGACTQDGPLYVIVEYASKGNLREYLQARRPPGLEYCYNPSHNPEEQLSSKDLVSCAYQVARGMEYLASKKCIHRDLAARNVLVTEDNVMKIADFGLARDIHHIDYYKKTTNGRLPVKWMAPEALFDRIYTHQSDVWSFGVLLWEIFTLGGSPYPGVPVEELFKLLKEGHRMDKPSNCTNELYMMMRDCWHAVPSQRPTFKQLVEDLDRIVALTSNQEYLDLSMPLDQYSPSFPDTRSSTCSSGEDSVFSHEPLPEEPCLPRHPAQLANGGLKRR
# Summary of the method: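 FGFR1 at 0.1˜5 nM final with substrate peptide 5˜50 nM and ATP 10˜200 μM final, 0.5˜3 h at room temperature. Stopped with EDTA plus labeled antibody for 1 h; TR-FRET signal read at 665 nm, IC50 fitted from inhibition rates.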
# FGFR4 kinase = FGFR4 kinase (Homo sapiens (Human), UniProt P22455); experiment: Enzymologic experiment of FGFR4 (TR-FRET); type: biochemical; conditions: FGFR4 kinase activity
# Chain of FGFR4 kinase (P22455 22-802): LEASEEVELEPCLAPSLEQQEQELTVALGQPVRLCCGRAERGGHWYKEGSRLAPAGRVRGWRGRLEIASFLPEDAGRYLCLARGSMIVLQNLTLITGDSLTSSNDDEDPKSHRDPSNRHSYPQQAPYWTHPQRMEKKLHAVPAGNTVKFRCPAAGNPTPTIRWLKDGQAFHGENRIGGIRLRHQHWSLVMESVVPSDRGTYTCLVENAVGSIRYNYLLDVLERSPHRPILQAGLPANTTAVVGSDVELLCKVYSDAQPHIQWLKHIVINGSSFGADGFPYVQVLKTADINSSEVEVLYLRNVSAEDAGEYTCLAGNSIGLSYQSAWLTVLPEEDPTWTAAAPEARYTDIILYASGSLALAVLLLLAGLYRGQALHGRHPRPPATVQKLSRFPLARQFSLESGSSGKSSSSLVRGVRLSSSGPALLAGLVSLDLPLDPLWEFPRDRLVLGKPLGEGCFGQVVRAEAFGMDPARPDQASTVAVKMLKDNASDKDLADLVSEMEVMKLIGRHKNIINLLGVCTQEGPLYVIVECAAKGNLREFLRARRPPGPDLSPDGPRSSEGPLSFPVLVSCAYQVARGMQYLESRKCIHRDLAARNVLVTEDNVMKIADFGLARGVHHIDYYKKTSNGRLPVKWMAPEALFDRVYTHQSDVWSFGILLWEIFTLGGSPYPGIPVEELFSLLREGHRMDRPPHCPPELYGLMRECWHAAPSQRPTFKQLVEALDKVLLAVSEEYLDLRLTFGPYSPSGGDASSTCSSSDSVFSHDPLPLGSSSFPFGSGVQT
# Procedure: In this experiment, the inhibitory effect of the compounds on FGFR4 kinase activity was tested by a fluorescence resonance energy transfer (TR-FRET) method, and the half maximal inhibitory concentration (IC50) of the compounds on the FGFR4 kinase activity was determined.
# 2) 1˜5 μL of diluted solution in gradient of the compound was added.
# 3) 1˜5 μL of a substrate mixture containing substrate polypeptide with a final concentration of 5˜50 nM and ATP with a final concentration of 10˜200 μM was added.
# 4) The mixture was incubated for 0.5˜3 hours at room temperature.
# 5) 10 μL of EDTA and a test solution comprising labeled antibody were added, and the plate was incubated for 1 hour at room temperature.
# 7) The inhibition rates were calculated according to the fluorescence signal values.
# Hep 3B cell line tumor = experiment: Pharmacodynamics test in vivo, Hep 3B tumor-bearing nude mice; conditions: Mus musculus, Hep3B, oral 30 mg/kg, 2 times/day, read-out: Tumor inhibition rate
# Procedure: a, A Hep 3B cell line was taken from the cell bank, and the cells were resuscitated with the MEM culture medium (MEM+10% FBS+1% Glu+1% SP). The cells were placed in the cell culture bottle after resuscitation (cell type, date, and the name of the culturing person were marked on the bottle wall) and were incubated in a CO2 Incubator (the incubator temperature was 37° C., and the CO2 concentration was 5%).
# b, The cells were passaged after 80-90% of the bottom of the culture bottle was covered by the cells. After passage, the cells were further incubated in the CO2 incubator. The process was repeated until the number of cells met the pharmacodynamic requirements in vivo.
# c, The cultured cells were collected and counted by automatic cell counter. According to the counting results, the cells were resuspended with PBS to prepare a cell suspension (density: 7×10^7/mL), which was placed in the ice box for use.
# a, Nude mouse was marked with a disposable universal ear tag for mouse and rat before inoculation, and the skin of the inoculated site was disinfected with 75% medical alcohol.
# b, At the time of inoculation, the cell suspension was mixed well, 0.1˜1 mL of cell suspension was taken with a 1 mL syringe, after removing air bubbles, and the syringe was placed on an ice bag for use.
# c, The nude mice were inoculated successively (the inoculated site was located on the right shoulder of the right back of the nude mice, and inoculated subcutaneously with 0.1 mL of cell suspension).
# a, Tumor was measured on Day 14 to Day 16 after inoculation depending on the tumor growth, and tumor size was calculated.
# Tumor volume calculation: tumor volume (mm^3)=length (mm)×width (mm)×width (mm)/2
# b, According to the size of the tumor, the mice were grouped by random grouping.
# c, According to the results of the grouping, the test drug was administered (administration method: oral administration, administration dose: 30 mg/kg, administration volume: 10 mL/kg, administration frequency: 2 times/day, […], vehicle: 0.5% CMC/1% Tween 80).
# d, The tumor was measured and weighed twice a week after the test drug was administrated.
# e, Animals were euthanized at the end of the test.
SMILES,Peak Time tmax [1] [h],AUC(0-t) [1] [ng·h/mL],AUC(0-inf) [1] [ng·h/mL],half-life [1] [h],MRT [1] [h],Cmax [1] [ng/mL],IC50 (HuH-7 cells) [nM],IC50 (Hep 3B cells) [nM],IC50 (SK-HEP-1 cells) [nM],IC50 (FGFR1 kinase) [nM],IC50 (FGFR4 kinase) [nM],"inhibition in vivo at 30 mg/kg (Hep 3B cell line tumor; 216 h, 9 days of administration) [%]","inhibition in vivo at 30 mg/kg (Hep 3B cell line tumor; 240 h, 10 days of administration) [%]"
"CONc1cc(NC(=O)N2CCCc3cc(CN4CCOCC4=O)c(C=O)nc32)ncc1C#N [Example 54, N-(5-Cyano-4-(methoxyamino)pyridin-2-yl)-7-formyl-6-((3-carbonylmorpholino)methyl)-3,4-dihydro-1,8-naphthyridine-1(2H)-carboxamide]",4,5530,5690,0.98,3.86,1290,24.1,17.5,> 10000,> 10000,2.77,–,–
"COC[C@@H](C)Oc1cc(NC(=O)N2CCCc3cc(CN4CCCOCC4=O)c(C=O)nc32)ncc1C#N [Example 28, (R)-N-(5-Cyano-4-((1-methoxypropan-2-yl)oxy)pyridin-2-yl)-7-formyl-6-((3-carbonyl-1,4-oxazepin-4-yl)methyl)-3,4-dihydro-1,8-naphthyridin-1(2H)-carboxamide]",–,–,–,–,–,–,–,–,–,–,–,74.3,–
"CO[C@H]1COCC1Nc1cc(NC(=O)N2CCCc3cc(CN4C(=O)OCC4C)c(C=O)nc32)ncc1C#N (stereo partly drawn) [Example 46, N-(5-Cyano-4-trans-(((3,4)-4-methoxytetrahydrofuran-3-yl)amino)pyridin-2-yl) -7-formyl-6-(((S)-4-methyl-2-carbonyloxazolidin-3-yl)methyl)-3,4-dihydro-1,8-naphthyridin-1(2H)-carboxamide]",4,1530,1530,2.55,6.24,1930,44.4,12.7,> 10000,> 10000,2.93,–,–
"CO[C@H]1COCC1Nc1cc(NC(=O)N2CCCc3cc(CN4CCOCC4=O)c(C=O)nc32)ncc1C#N (stereo partly drawn) [Example 66, N-(5-Cyano-4-(((trans)-4-methoxytetrahydrofuran-3-yl)amino)pyridin-2-yl)-7-formyl-6-((3-carbonylmorpholino)methyl)-3,4-dihydro-1,8-naphthyridin-1(2H)-carboxamide]",4,2480,2540,1,3.6,1880,11.7,3.3,> 10000,> 10000,0.97,–,–
"COC1(CNc2cc(NC(=O)N3CCCc4cc(CN5CCCOCC5=O)c(C=O)nc43)ncc2C#N)CC1 [Example 25, N-(5-Cyano-4-(((1-methoxycyclopropyl)methyl)amino)pyridin-2-yl)-7-formyl-6-((3-carbonyl-1,4-oxazepin-4-yl)methyl)-3,4-dihydro-1,8-naphthyridin-1(2H)-carboxamide]",–,–,–,–,–,–,–,–,–,–,–,–,68.4
"CO[C@@H]1COCC1Nc1cc(NC(=O)N2CCCc3cc(CN4CCCCOC4=O)c(C=O)nc32)ncc1C#N (stereo partly drawn) [Example 37, N-(5-Cyano-4-(((trans)-4-methoxytetrahydrofuran-3-yl)amino)pyridin-2-yl)-7-formyl-6-((2-carbonyl-1,3-oxazepin-3-yl)methyl)-3,4-dihydro-1,8-naphthyridin-1(2H) -carboxamide]",–,–,–,–,–,–,4.1,2.8,> 10000,> 10000,1.12,–,–
"CO[C@H]1COCC1Oc1cc(NC(=O)N2CCCc3cc(CN4CCOCC4=O)c(C=O)nc32)ncc1C#N (stereo partly drawn) [Example 67, N-(5-Cyano-4-(((3,4)-trans-4-methoxytetrahydrofuran-3-yl)oxy)pyridin-2-yl)-7-formyl-6-((3-carbonylmorpholino)methyl)-3,4-dihydro-1,8-naphthyridin-1(2H)-carboxamide]",4,3990,4070,0.88,4.17,2840,29.5,16.7,> 10000,> 10000,2.31,–,–
"CO[C@H]1CCN(c2cc(NC(=O)N3CCCc4cc(CN5CCN(C)CC5=O)c(C=O)nc43)ncc2C#N)C1 [Example 63, (S)-N-(5-Cyano-4-(3-methoxypyrrolidin-1-yl)pyridin-2-yl)-7-formyl-6-((4-methyl-2-carbonylpiperazin-1-yl)methyl)-3,4-dihydro-1,8-naphthyridin-1(2H)-carboxamide]",2,4990,4030,0.91,2.7,2060,28.9,13.8,> 10000,> 10000,2.49,–,–
"CO[C@H]1COCC1Oc1cc(NC(=O)N2CCCc3cc(CN4C(=O)OC[C@@H]4C)c(C=O)nc32)ncc1C#N (stereo partly drawn) [Example 47, N-(5-Cyano-4-(((3,4)-trans-4-methoxytetrahydrofuran-3-yl)oxy)pyridin-2-yl)-7-formyl-6-(((S)-4-methyl-2-carbonyloxazolidin-3-yl)methyl)-3,4-dihydro-1,8-naphthyridin-1(2H)-carboxamide]",–,–,–,–,–,–,24.4,9.9,> 10000,> 10000,4.95,–,–
"CO[C@H]1CCOCC1Nc1cc(NC(=O)N2CCCc3cc(CN4CCOCC4=O)c(C=O)nc32)ncc1C#N (stereo partly drawn) [Example 70, N-(5-Cyano-4-(((3,4)-trans-4-methoxytetrahydro-2H-pyran-3-yl)amino)pyridin-2-yl)-7-formyl-6-((3-carbonylmorpholino)methyl)-3,4-dihydro-1,8-naphthyridin-1(2H) -carboxamide]",–,–,–,–,–,–,19.4,6.2,> 10000,> 10000,1.34,–,–
"COc1ccccc1Nc1cc(NC(=O)N2CCCc3cc(CN4CCOCC4=O)c(C=O)nc32)ncc1C#N [Example 8, N-(5-Cyano-4-((2-methoxyphenyl)amino)pyridin-2-yl)-7-formyl-6-((3-carbonylmorpholino)methyl)-3,4-dihydro-1,8-naphthyridin-1(2H)-carboxamide]",2,4790,4940,1.16,3.74,2060,8.6,0.9,> 10000,> 10000,3.4,–,–
